Patent US9078843B2, “Immunogenic fragments of T-cell receptor constant domains and peptides derived therefrom” (priority 2005, dated 2015)

Key:
IgM in sera = assay: Antigen microarray, serum IgM binding to TCR gamma constant region peptides; design: species or system human; settings: serum 1:5
Description: (§1) The antigenicity of peptides derived from human T-cell receptor gamma-chain constant region (accession no: AAB63314; SEQ ID NO:173) was essayed using antigen array technology, as detailed below.
(§2) Serum samples: Blood samples were obtained by random availability from 12 healthy adults and from 9 adults newly diagnosed with lung cancer, before treatment. All samples were collected with informed consent and approval of the Helsinki committee of the Sheba Medical Center, Tel Hashomer, Israel. The blood samples were allowed to clot at room temperature. After centrifugation, sera were collected and stored at −20° C.
(§3) Antigen microarray: Antigens diluted in PBS were placed in 384-well plates at a concentration of 1 μg/μl. We used a robotic MicroGrid arrayer with solid spotting pins of 0.2 mm in diameter (BioRobotics, Cambridge, U.K.) to spot the antigens onto ArrayIt SuperEpoxi microarray substrate slides (TeleChem, Sunnyvale, Calif.). the antigens were spotted in replicates of 4, and the microarrays were blocked for 1 h at 37° C. with 1% bovine serum albumin, and incubated under a cover-slip overnight at 4° C. with a 1:5 dilution of the test serum in blocking buffer. The quantitative range of signal intensity of binding to each antigen spot was 0.01-65,000, and this range of detection made it possible to record reliable data with little dilution of test samples. The arrays were then washed and incubated for 1 hour at 37° C. with a 1:500 dilution of detection antibodies. Two detection antibodies were used: a goat anti-human IgG Cy3-conjugated antibody and a goat anti-human IgM Cy5-conjugated antibody, purchased from Jackson ImmunoResearch, West Grove, Pa. The arrays were washed again, spin-dried, and scanned with a ScanArray 4000× scanner (GSI Luminomics, Billerica, Mass.). The results were recorded as TIFF files. Image acquisition by laser and quantification were done as described (Quintana et al., 2004).
(§4) Data preprocessing and background filtering: Antigen reactivity was defined by the mean intensity of the 4 replicates of binding to that antigen on the microarray. We identified positive antibodies in the following way: To establish the minimum level of significant antibody binding, we calculated the mean reactivity level of 32 spots incubated with phosphate buffered saline (PBS) in place of an antigen on each microarray slide. A signal was scored as positive when it expressed intensity greater than the upper limit of the PBS control, which was defined as the mean intensity of the PBS spots plus 2-times the standard deviation. Signal intensity above the PBS background was considered positive antibody binding.
(§5) The presence of IgG and IgM in sera obtained from patients with lung cancer and from healthy controls was determined using the antigen microarray, as detailed above. The results, presented in Table 13, represent the mean reactivity of 12 control subjects and 9 lung cancer subjects.

IgG in sera = assay: Antigen microarray, serum IgG binding to TCR gamma constant region peptides; design: species or system human; settings: for Antigen Binding (Mean Intensity) IgG: serum 1:5
Description: as §1, §2, §3, §4, §5

adjuvant arthritis (AA) = assay: Adjuvant arthritis (AA) after vaccination with recombinant proteins or peptides; assay type: in vivo, Lewis rats; settings: single ip dose of 100 μg protein or peptide in IFA, AA induced seven days later; FIG. 4
Description: AA was induced as described (Quintana et al 2002), using 1 mg per rat of heat-killed Mt strain H37Ra (Difco). Each experimental and control group contained at least 8 rats. The day of AA induction was designated as day 0, and disease severity was assessed by direct observation of all 4 limbs in each animal. A relative score between 0 and 4 was assigned to each limb, based on the degree of joint inflammation, redness and deformity; thus the maximum possible score for an individual animal was 16 (Quintana et al 2002). The mean AA score (±SEM) is shown for each experimental group. Arthritis was also quantified by measuring hind limb diameter with a caliper. Measurements were taken on the day of the induction of AA and 26 days later (at the peak of AA); the results are presented as the mean±SEM of the difference between the two values for all the animals in each group. The person who scored the disease was blinded to the identity of the groups. Experiments were repeated at least 3 times and produced similar results.
Female Lewis rats were immunized ip with a single dose of 100 μg of peptide or recombinant protein emulsified in IFA.
We studied the immune effects of vaccination with recombinant C1 (rβC1) or C2 (rβC2), or with C1/2-derived peptides (Table 1). Female Lewis rats were immunized with a single ip dose of 100 μg of protein or peptide in IFA, and seven days later AA was induced.

[1] = system: draining lymph node cells (LNC); assay: T-cell proliferation of lymph node cells from vaccinated rats ([methyl-3H]-thymidine, stimulation index); assay type: cell-based, Lewis rats; settings: for proliferative responses of LNC to PPD: LNC from peptide immunized rats; for T-cell responses of immunized rats to the immunizing peptide (immunogenicity): rats vaccinated with the peptide, FIG. 6B
Description: Unless otherwise stated, T-cell proliferation assays were performed at day 26 after the induction of AA, when the disease is at its peak, as previously described (Quintana et al 2002). Briefly, popliteal and inguinal lymph node cells (LNC), were cultured in quadruplicates in 200 μl round bottom microtiter wells (Costar Corp., Cambridge, USA) at 2×10^5 cells per well with or without antigen. The T-cell mitogen Concanavalin A (Con A) was used as a positive control for T-cell proliferation. Cultures were incubated for 96 hrs at 37° C. in a humidified atmosphere of 5% CO2. T-cell responses were detected by the incorporation of [methyl-3H]-thymidine (Amersham, Buckinghamshire, UK; 1 μCi/well), which was added to the wells for the last 18 hours. The stimulation index (SI) was computed as the ratio of the mean c.p.m. of antigen- or mitogen-containing wells to control wells cultured with medium alone. The results of T-cell proliferation experiments are shown as SI±SEM, T-cell responses with SI<2 were considered not significant.
To study the immune responses associated with the inhibition of AA by DNA vaccination with pβC1 or pβC2, we analyzed the T-cell responses of immunized rats 26 days after the induction of AA. We stimulated draining lymph node cells (LNC) in vitro with a collective of Mycobacterial antigens known to be associated with AA: HSP65, PPD and Mt176-190. The Mt176-190 peptide contains the 180-188 epitope of HSP65 described by van Eden et al which is recognized by HSP65-specific T-cell clones that can transfer AA (van Eden et al 1985). We also studied the immune response directed to recombinant βC1 and recombinant βC2, or to βC1/2 peptides predicted to bind the MHC class II molecule of the Lewis rat (see Table 1). Glutathione-S-transferase (GST) was included as a control antigen. […] 149 (MED12).
To study the effect of C1/2 vaccination on the immune response to C1/2 peptides and to the target antigens of AA, we vaccinated rats with rβC1 or rβC2, and then induced AA. At day 26, we removed the draining lymph nodes and measured the T-cell proliferative responses to peptides N12 (SEQ ID NO:147), MED12 (SEQ ID NO:149) or C2C (SEQ ID NO:152), or to the Mycobacterial antigens. […] Thus the C1/2 peptides are immunologically dominant.

[2] = HEALTHY CONTROLS, mean of 12 subjects
[3] = LUNG CANCER, mean of 9 subjects

| Substance | Antigen Binding (Mean Intensity) IgM (IgM in sera; [2]) | Antigen Binding (Mean Intensity) IgM (IgM in sera; [3]) | Antigen Binding (Mean Intensity) IgG (IgG in sera; [2]) | Antigen Binding (Mean Intensity) IgG (IgG in sera; [3]) | severity of the disease (AA score) (adjuvant arthritis (AA)) | proliferative responses of LNC to PPD ([1]; FIG. 6A) | T-cell responses of immunized rats to the immunizing peptide (immunogenicity) [1] | response of antibodies to the peptide (IgG in sera; antibodies from control subjects) | proliferative responses of LNC to mt180 and HSP65 ([1]; LNC from peptide-vaccinated rats, FIG. 6A) |
| --- | --- | --- | --- | --- | --- | --- | --- | --- | --- |
| DQEIIFPPIKT [SEQ ID NO:161] | 86 | 160 | −147 | 846 |  |  |  |  |  |
| KEHRCIVDTLLLQL [SEQ ID NO:165] | 97 | 103 | 95 | 1095 |  |  |  |  |  |
| dspkpvtqnisaeawgr (DSPKPVTQNISAEAWGR; listed as Rattus norvegicus) [MED12] |  |  |  |  | significantly decreased | increased proliferative responses | significant T-cell responses |  |  |
| KAGTYLCLLEKFFPDVIKI [SEQ ID NO:158] | 1753 | 2381 | 2233 | 2116 |  |  |  | responded |  |
| AYYMYLLLLLKSVVYFAIIT [SEQ ID NO:166] | 87 | 140 | 199 | 996 |  |  |  |  |  |
| KPTIFLPSSWLTVPE [SEQ ID NO:164] | −24 | 86 | −240 | −114 |  |  |  |  |  |
| VVYFAIITCCLLRRTAFCCN [SEQ ID NO:167] | 548 | 512 | 376 | 1928 |  |  |  |  |  |
| vlvsalvlmamvkkkns (VLVSALVLMAMVKKKNS; listed as Rattus norvegicus) [C2C] |  |  |  |  | significantly decreased | increased proliferative responses | significant T-cell responses |  | increased proliferative responses |
| vtppkvslfepseaeia (VTPPKVSLFEPSEAEIA; listed as Rattus norvegicus) [N12] |  |  |  |  | significantly decreased | increased proliferative responses | significant T-cell responses |  |  |
